What was measured:
[1] = Oral bioavailability in rat at 2 mg/kg; type: ADME, organism-based; conditions: in vivo
[2] = Half life in rat at 1 mg/kg, iv and 2 mg/kg, po; type: ADME, organism-based; conditions: in vivo
[3] = AUCt/dose in Sprauge-Dawley rat; type: ADME; conditions: in vivo
[4] = Oral bioavailability in Sprauge-Dawley rat; type: ADME, organism-based; conditions: Sprague-Dawley, in vivo
[5] = Drug level in SRH rat plasma a 1 mg/kg , po measured after 4 hrs; type: ADME, organism-based
[6] = Drug level in SRH rat plasma at 3 mg/kg , po measured after 4 hrs; type: ADME, organism-based
[7] = Drug level in SRH rat plasma at 0.3 mg/kg , po measured after 4 hrs; type: ADME, organism-based
[8] = Oral bioavailability in monkey at 2 mg/kg, po; type: ADME, organism-based, Macaca mulatta; conditions: rhesus monkey, in vivo
[9] = Half life in monkey at 0.5 mg/kg, iv and 2 mg/kg, po; type: ADME, organism-based, Macaca mulatta; conditions: rhesus monkey, in vivo
[10] = Clearance in monkey at 0.5 mg/kg, iv and 2 mg/kg, po; type: ADME, organism-based, Macaca mulatta; conditions: rhesus monkey, in vivo
[11] = Oral bioavailability in dog at 10 mg/kg; type: ADME, organism-based, Canis lupus familiaris; conditions: in vivo
[12] = Half life in dog at 1 mg/kg, iv and 10 mg/kg, po; type: ADME, organism-based, Canis lupus familiaris; conditions: in vivo
[13] = Clearance in dog at 1 mg/kg, iv and 10 mg/kg, po; type: ADME, organism-based, Canis lupus familiaris; conditions: in vivo
[14] = Half life in rat at 2 mg/kg, po; type: ADME, organism-based; conditions: in vivo
[15] = Clearance in rat at 1 mg/kg, iv and 2 mg/kg, po; type: ADME, organism-based; conditions: in vivo
[16] = Total Plasma clearance in Sprauge-Dawley rat; type: ADME; conditions: Sprague-Dawley
[17] = Half life in Sprauge-Dawley rat; type: ADME; conditions: Sprague-Dawley, in vivo

bioavailability [1]	half-life [2]	AUCt/dose [3]	bioavailability [4]	clearance [16]	half-life [17]	Compound	other results
15%	0.9 h	–	–	–	–	COC(=O)N(C)c1c(N)nc(-c2nc(Cc3ccccc3F)n3ccccc23)nc1N	–
32%	0.9 h	–	–	–	–	COC(=O)N(C)c1c(N)nc(-n2nc(Cc3ccccc3F)c3ccccc32)nc1N	–
–	–	25.2 µM·kg·h/mg	37%	–	–	COC(=O)Nc1c(N)nc(-n2nc(Cc3c(F)ccc(F)c3F)c3cc(Cl)ccc32)nc1N	–
80%	–	–	–	–	–	CC1(C)C(=O)Nc2nc(-n3nc(CCC(F)(F)F)c4cc(Cl)ccc43)nc(N)c21	concentration at 4 h [5]: 145 nM; concentration at 4 h [6]: 392 nM; concentration at 4 h [7]: 36 nM; bioavailability [8]: 63%; half-life [9]: 1.4 h; clearance [10]: 34 mL/min/kg; bioavailability [11]: 21%; half-life [12]: 1.3 h; clearance [13]: 39 mL/min/kg; half-life [14]: 2.6 h; clearance [15]: 29 mL/min/kg
4%	0.6 h	–	–	–	–	COC(=O)N(C)c1c(N)nc(-c2nc(Cc3ccccc3F)n3ncccc23)nc1N	–
–	–	18 µM·kg·h/mg	51%	0.9 mL/min/kg	3.6 h	COC(=O)N(C)c1c(N)nc(-n2nc(Cc3c(F)ccc(F)c3F)c3cc(Cl)ccc32)nc1N	–
–	–	4.6 µM·kg·h/mg	22%	1.4 mL/min/kg	1.5 h	COC(=O)N(C)c1c(N)nc(-n2nc(Cc3ccccc3F)c3cc(F)ccc32)nc1N	–
–	–	15.3 µM·kg·h/mg	68%	1.6 mL/min/kg	2.2 h	COC(=O)N(C)c1c(N)nc(-n2nc(Cc3c(F)ccc(F)c3F)c3ccccc32)nc1N	–
